PubChem BioAssay AID1963963 (Molecular Pharmacology Branch, DTP, NCI, 2024)

Test system: 958667-338-R-J2-PDC tumor spheroids viability
Test: Anticancer human tumor 958667-338-R-J2-PDC patient-derived colon adenocarcinoma cell line growth inhibition [PI3K]
Conditions: spheroids with HUVEC and MSC; for IC50: curve of first compound; for viability, T/C: stronger effect = lower value
Outline: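 Tumor cells grown as multi-cell spheroids with HUVEC endothelial cells and MSC fibroblast-like stroma were treated with targeted agents combined with inavolisib, alpelisib, duvelisib or copanlisib. Doses fell in half-log steps from near clinical Cmax, else from 10 microM. Viability was measured.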
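Also: spheroids exposed to compounds for seven days before readout.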

CNC(=O)c1ccc(N2C(=S)N(c3ccc(C#N)c(C(F)(F)F)c3)C(=O)C2(C)C)cc1F + COc1c(OCCCN2CCOCC2)ccc2c3n(c(=NC(=O)c4cnc(N)nc4)nc12)CCN3
IC50 (second compound 0.00316 µM): > 10000 nM | IC50 (second compound 0.01 µM): > 10000 nM | IC50 (second compound 0.0316 µM): > 10000 nM | IC50 (second compound 0.1 µM): 4270 nM | IC50 (second compound 0.316 µM): < 31.6 nM | IC50 (second compound 1 µM): < 31.6 nM | viability, T/C (second compound 0.00316 µM, first compound 0.0316 µM): 95.2% | viability, T/C (second compound 0.00316 µM, first compound 0.1 µM): 97.8% | viability, T/C (second compound 0.00316 µM, first compound 0.316 µM): 91.4% | viability, T/C (second compound 0.00316 µM, first compound 1 µM): 96.5% | viability, T/C (second compound 0.00316 µM, first compound 3.16 µM): 109% | viability, T/C (second compound 0.00316 µM, first compound 10 µM): 82.1% | viability, T/C (second compound 0.01 µM, first compound 0.0316 µM): 81.9% | viability, T/C (second compound 0.01 µM, first compound 0.1 µM): 88.9% | viability, T/C (second compound 0.01 µM, first compound 0.316 µM): 90.1% | viability, T/C (second compound 0.01 µM, first compound 1 µM): 82.7% | viability, T/C (second compound 0.01 µM, first compound 3.16 µM): 105% | viability, T/C (second compound 0.01 µM, first compound 10 µM): 92% | viability, T/C (second compound 0.0316 µM, first compound 0.0316 µM): 68.5% | viability, T/C (second compound 0.0316 µM, first compound 0.1 µM): 74.7% | viability, T/C (second compound 0.0316 µM, first compound 0.316 µM): 74.7% | viability, T/C (second compound 0.0316 µM, first compound 1 µM): 68.2% | viability, T/C (second compound 0.0316 µM, first compound 3.16 µM): 92.7% | viability, T/C (second compound 0.0316 µM, first compound 10 µM): 67.8% | viability, T/C (second compound 0.1 µM, first compound 0.0316 µM): 54.9% | viability, T/C (second compound 0.1 µM, first compound 0.1 µM): 61.4% | viability, T/C (second compound 0.1 µM, first compound 0.316 µM): 56.2% | viability, T/C (second compound 0.1 µM, first compound 1 µM): 59.7% | viability, T/C (second compound 0.1 µM, first compound 3.16 µM): 50.5% | viability, T/C (second compound 0.1 µM, first compound 10 µM): 42.8% | viability, T/C (second compound 0.316 µM, first compound 0.0316 µM): 40.9% | viability, T/C (second compound 0.316 µM, first compound 0.1 µM): 47.6% | viability, T/C (second compound 0.316 µM, first compound 0.316 µM): 38.8% | viability, T/C (second compound 0.316 µM, first compound 1 µM): 33.2% | viability, T/C (second compound 0.316 µM, first compound 3.16 µM): 31.5% | viability, T/C (second compound 0.316 µM, first compound 10 µM): 22.7% | viability, T/C (second compound 1 µM, first compound 0.0316 µM): 19.5% | viability, T/C (second compound 1 µM, first compound 0.1 µM): 20.9% | viability, T/C (second compound 1 µM, first compound 0.316 µM): 17.4% | viability, T/C (second compound 1 µM, first compound 1 µM): 18.3% | viability, T/C (second compound 1 µM, first compound 3.16 µM): 16% | viability, T/C (second compound 1 µM, first compound 10 µM): 9.91%

Cn1cnc2c(F)c(Nc3ccc(Br)cc3Cl)c(C(=O)NOCCO)cc21 + COc1c(OCCCN2CCOCC2)ccc2c3n(c(=NC(=O)c4cnc(N)nc4)nc12)CCN3
IC50 (second compound 0.00316 µM): 255 nM | IC50 (second compound 0.01 µM): 134 nM | IC50 (second compound 0.0316 µM): 38 nM | IC50 (second compound 0.1 µM): 20.6 nM | IC50 (second compound 0.316 µM): < 9.49 nM | IC50 (second compound 1 µM): < 9.49 nM | viability, T/C (second compound 0.00316 µM, first compound 0.00949 µM): 81.6% | viability, T/C (second compound 0.00316 µM, first compound 0.03 µM): 81.9% | viability, T/C (second compound 0.00316 µM, first compound 0.0949 µM): 75.2% | viability, T/C (second compound 0.00316 µM, first compound 0.3 µM): 44.6% | viability, T/C (second compound 0.00316 µM, first compound 0.949 µM): 26.7% | viability, T/C (second compound 0.00316 µM, first compound 3 µM): 17.3% | viability, T/C (second compound 0.01 µM, first compound 0.00949 µM): 87.8% | viability, T/C (second compound 0.01 µM, first compound 0.03 µM): 65.3% | viability, T/C (second compound 0.01 µM, first compound 0.0949 µM): 62.1% | viability, T/C (second compound 0.01 µM, first compound 0.3 µM): 34.7% | viability, T/C (second compound 0.01 µM, first compound 0.949 µM): 24.9% | viability, T/C (second compound 0.01 µM, first compound 3 µM): 11.6% | viability, T/C (second compound 0.0316 µM, first compound 0.00949 µM): 71.6% | viability, T/C (second compound 0.0316 µM, first compound 0.03 µM): 46.2% | viability, T/C (second compound 0.0316 µM, first compound 0.0949 µM): 40.4% | viability, T/C (second compound 0.0316 µM, first compound 0.3 µM): 28% | viability, T/C (second compound 0.0316 µM, first compound 0.949 µM): 17.4% | viability, T/C (second compound 0.0316 µM, first compound 3 µM): 6.46% | viability, T/C (second compound 0.1 µM, first compound 0.00949 µM): 67.8% | viability, T/C (second compound 0.1 µM, first compound 0.03 µM): 40.9% | viability, T/C (second compound 0.1 µM, first compound 0.0949 µM): 23.8% | viability, T/C (second compound 0.1 µM, first compound 0.3 µM): 16.4% | viability, T/C (second compound 0.1 µM, first compound 0.949 µM): 8.73% | viability, T/C (second compound 0.1 µM, first compound 3 µM): 2.61% | viability, T/C (second compound 0.316 µM, first compound 0.00949 µM): 34.6% | viability, T/C (second compound 0.316 µM, first compound 0.03 µM): 25.5% | viability, T/C (second compound 0.316 µM, first compound 0.0949 µM): 13.7% | viability, T/C (second compound 0.316 µM, first compound 0.3 µM): 6.91% | viability, T/C (second compound 0.316 µM, first compound 0.949 µM): 3.48% | viability, T/C (second compound 0.316 µM, first compound 3 µM): 1.27% | viability, T/C (second compound 1 µM, first compound 0.00949 µM): 13.5% | viability, T/C (second compound 1 µM, first compound 0.03 µM): 10.8% | viability, T/C (second compound 1 µM, first compound 0.0949 µM): 5.1% | viability, T/C (second compound 1 µM, first compound 0.3 µM): 3.51% | viability, T/C (second compound 1 µM, first compound 0.949 µM): 2.89% | viability, T/C (second compound 1 µM, first compound 3 µM): 1%
